Assay results as given in patent publication US8383136B2, “Micelle encapsulation of therapeutic agents” (Wisconsin Alumni Research Foundation, priority 2009, dated 2013).
In brackets after ≈: the same amount, converted by molar mass. Several values for one entry are separate records, joined by “and”; a condition that tells them apart may be missing. Equal entries are not always repeated. Where two headings read alike, the source gives them in different places. One block for each compound: values may come before it.

Assays:
[1] = % drug loading of PEG-b-PLA micelles (wt drug(s)/wt polymer); assay type: physicochemical; settings: all drugs of the SDM or MDM together, PEG-b-PLA (4.2K:1.9K) micelles
Protocol: Drug(s) to polymer w/w percent was calculated for SDM and MDM. PEG-b-PLA micelles were freeze dried, weighed and the amount of drug(s) in the freeze dried sample was quantified by HPLC. The drug w/w percent was calculated as the mass of the drug(s) to the mass of polymer in the freeze dried sample multiplied by 100.

[2] = Drug solubilization by PEG-b-PLA micelles (drug level in water, reverse phase HPLC); settings: SDM or MDM, PEG-b-PLA (4.2K:1.9K) micelles
Protocol: The drug-polymer mixture was dissolved in 0.50 mL acetonitrile (ACN). The ACN was removed at 60° C. under reduced pressure on a rotary evaporator resulting in the formation of a homogenous film, The drug-polymer film was rehydrated with 0.50 mL of DD H2O at 60° C. with gentle agitation resulting in a clear solution of drug-loaded PEG-b-PLA micelles. The micellar solution was filtered using a 0.45 μm filter, and the micelles were characterized in terms of size and loading by Dynamic Light Scattering (DLS) and HPLC respectively.
MDMS were prepared similarly to the SDMs by mixing 2.0 mg of each drug with 15 mg of the polymer. The procedure for the preparation and characterization of these micelles was identical to the SDMs.
The content of drug loaded in PEG-b-PLA micelles was quantified by reverse phase HPLC. The HPLC system used for quantifying was a Shimadzu prominence HPLC system (Shimadzu, JP), consisting of a LC-20AT pump, SIL-20AC HT autosampler, CTO-20AC column oven and a SPD-M20A diode array detector. A sample of 10 μL was injected into a Zorbax SB-C8 Rapid Resolution cartridge (4.6×75 mm, 3.5 micron, Agilent). The column temperature was maintained at 40° C. throughout the run. Two HPLC methods were developed to quantify the amount of the drug(s) loaded in PEG-b-PLA micelles.
The mobile phase was an isocratic mixture of 45% ACN and 54% aqueous phase containing 0.1% phosphoric acid and 1% methanol in DD H2O.
The mobile phase was a gradient mixture of ACN and aqueous phase containing 0.1% phosphoric acid and 1% methanol in DD H2O. […] With both HPLC methods samples were injected twice and reproducible and rapid separation of the drugs was achieved.
Mn of PEG and PLA of PEG-b-PLA was 4,200 and 1,900 g/mol, respectively (APC Inc., UK). ACN was removed by heating at 60° C. and reduced pressure. The resultant dry polymer film containing anti-cancer agent(s) was dissolved by addition of water (0.50 mL) at 60° C. with gentle agitation.
The resultant dry PEG-b-PLA film containing drugs was dissolved by the addition of water (0.50 mL) at 60° C. with gentle agitation.

[3] = Physical stability / drug loss from PEG-b-PLA micelles after 24 hours (turbidity, HPLC); assay type: physicochemical; settings: for drug precipitated at 24 hours: SDM, HPLC data; for % w/w drug(s) left @ 24 hr / initial drug level in water / drug level @ 24 hr in water: PEG-b-PLA micelles; for time the micelles were physically stable: turbidity, ambient temperature
Protocol: Turbidity measurements were used to evaluate the physical stability of drug-loaded PEG-b-PLA micelles. A CARY 50 BIO UV-Visible spectrophotometer equipped with dip probe was used to measure turbidity. Micellar solutions were diluted six times, for a final concentration of PEG-b-PLA of 5 mg/mL, with DD H2O and filtered through 0.45 μm filter. […] Each measurement was performed in triplicate.

[4] = In vitro drug release from PEG-b-PLA micelles (dialysis method); assay type: physicochemical; settings: 12.5 mM PBS, pH=7.4, 37° C.
Protocol: (§1) SDMs or MDMs were prepared and characterized as described above. Post micelle preparation each sample was diluted with DD H2O, to yield about 0.10 mg/mL of each drug. A volume of 2.5 mL of the prepared sample was loaded into a 3 mL Slide-A-Lyzer® (Thermo Scientific Inc.) dialysis cassette with a MWCO of 20,000 g/mol. Four cassettes were used in each experiment. The cassettes were placed in 2.0 L of buffer which was changed every 3 hours to ensure sink conditions for drug(s) and polymer. A sample of 100 μL was drawn from each cassette at various sampling time intervals and then replaced with 100 μL of fresh buffer. […] The amount of drug(s) in each sample was quantified by HPLC as described above.
Statistical analysis was performed using one-way ANOVA at 5% significance level combined with Tukey's Multiple Comparison Test or t-test at 5% significance level. Curve-fitting analysis using one phase exponential association was used to calculate the half-life (t1/2) of drug in in vitro drug release experiments. Both analyses were performed using GraphPad Prism version 5.00 for Windows, Graph-Pad Software, San Diego Calif. USA, www.graphpad.com.
as §1, with “Post-micelle preparation,” for “Post micelle preparation”, “yield samples of” for “yield”, “reverse phase HPLC.” for “HPLC as described above.”

[5] = drug without micelles; cited from earlier work
[6] = Dynamic light scattering size of SDM and MDM; assay type: physicochemical; settings: DLS, drug-loaded SDM or MDM
Protocol: The drug-loaded micellar solutions were diluted 20 times with DD H2O and the samples was equilibrated for 2 min at 25° C. before the measurements. […] The hydrodynamic diameter of PEG-b-PLA micelles was calculated based on the Stokes-Einstein equation. Correlation function was curve fitted by cumulant method to calculate mean size and polydispersion index (PDI). All measurements were repeated three times, and volume-weighted particle sizes were presented as the average diameter with standard deviation.

[7] = tested on: pediatric acute lymphoblastic leukemia cell lines; settings: combination of 17-AAG and ETO, four cell lines; cited from earlier work
[8] = assay type: in vivo, rats; settings: micelle formulation compared to the standard vehicle that employs CrEL
physchem = assay type: physicochemical
Protocol: The mixture is mixed and sonicated for five minutes. The solvent is then removed by rotoevaporation at approximately 60° C. to provide a film. Hot (˜60° C.) deionized water is added to the oil and the solution is allowed to cool to ˜23° C. The solution is then centrifuged to remove the sediment in a 1.5 mL microtube, at ˜13,200 rpm for 1 minute. The supernatant is collected and filtered through a 0.2 μm PTFE filter.
The resulting solution was dialyzed against H2O in 3500 MWCO tubing (SpectraPor). Resulting micelles were centrifuged at 5000g's for 10 minutes to precipitate unincorporated drug. […] Micelle solutions were concentrated by rotary evaporation under reduced pressure at room temperature, followed by centrifugation (5000g's for 10 minutes).

[9] = tested on: 4T1 murine breast cancer cells; test: In vitro cytotoxicity, resazurin assay, and combination index; assay type: cell-based; settings: drug(s) in SDM or MDM, 72 hours, unit inferred
Protocol: MCF-7 human breast cancer cells were cultured in DMEM medium while 4T1 murine breast cancer cells, A549 human non-small cell lung cancer cells, and LS180 human colon cancer cells were cultured in RPMI1640 medium. Both media were supplemented with 10% fetal bovine serum (FBS) with antibiotics under 5% CO2 and 37° C. in an incubator. […] Free drugs were dissolved in DMSO, and drug-loaded PEG-b-PLA micelles were in deionized water. […] […] The metabolic conversion of resazurin dye by each viable cancer cell was quantified using a fluorescence cell plate reader (SpectraMax M2, Molecular Devices, USA) to estimate cell viability. […] IC50 values of free drugs and drug-loaded PEG-b-PLA micelles were calculated based on median-effect equation using Compusyn software (ver. 1.0).
(§2) CI values were obtained at IC50 values for 2- or 3-drug combinations. CI<1, C=1, and CI>1 were used as criteria to determine whether 2- or 3-drug combinations are synergistic, additive, and antagonistic, respectively (FIGS. 13-20).

[10] = dogs; cited from earlier work
[11] = tested on: A549 human non-small cell lung cancer cells; test: In vitro cytotoxicity, resazurin assay, and combination index; assay type: cell-based; settings: drug(s) in SDM or MDM, 72 hours, unit inferred
Protocol: (§3) MCF-7 human breast cancer cells were cultured in DMEM medium while 4T1 murine breast cancer cells, A549 human non-small cell lung cancer cells, and LS180 human colon cancer cells were cultured in RPMI1640 medium. Both media were supplemented with 10% fetal bovine serum (FBS) with antibiotics under 5% CO2 and 37° C. in an incubator. […] Free drugs were dissolved in DMSO, and drug-loaded PEG-b-PLA micelles were in deionized water. The samples were diluted with cell culture media to make 0.10, 1.0, 10, 100 and 1000 nM in 96 well plates. […] The metabolic conversion of resazurin dye by each viable cancer cell was quantified using a fluorescence cell plate reader (SpectraMax M2, Molecular Devices, USA) to estimate cell viability. […] IC50 values of free drugs and drug-loaded PEG-b-PLA micelles were calculated based on median-effect equation using Compusyn software (ver. 1.0).
as §2

[12] = tested on: MCF-7 human breast cancer cells; test: as above; assay type: cell-based; settings: MCF-7, drug(s) in SDM or MDM (PEG-b-PLA micelles), 72 hours, nM printed in b258 only, PTX/17-AAG 3.2:1, RAP/17-AAG 1:1, RAP/PTX 1:1, RAP/PTX/17-AAG 1:5:1
Protocol: as §3, §2

[13] = Solubilization with Poloxamer F68 (reference example); assay type: physicochemical; settings: analyte rapamycin
Text: Several polymers that form micelles with drugs were surveyed for solubilizing a paclitaxel-rapamycin-17-AAG drug combination. […] For example, the PEG-PPG-PEG triblock polymer Poloxamer F68 is useful to solubilize many hydrophobic compounds such as resveratrol, a hydrophobic compound with reported anticancer activity. […] In these attempts, the micelles coagulated and deteriorated in aqueous solutions.
Results for forming micelles of the paclitaxel-rapamcyin-17-AAG combination with Poloxamer F68: […]

[14] = PTX/17-AAG 4.7:1, RAP/17-AAG 1:1, RAP/PTX 1:1, RAP/PTX/17-AAG 1:5:1
[15] = PTX/17-AAG 4.7:1, RAP/17-AAG 1:1, RAP/PTX 1:1, RAP/PTX/17-AAG 1:5:1, read-out: IC50

Compound: CC(=O)O[C@@]12CO[C@@H]1C[C@H](O)[C@@]1(C)C(=O)[C@H](O)C3=C(C)[C@@H](OC(=O)[C@H](O)[C@@H](NC(=O)OC(C)(C)C)c4ccccc4)C[C@@](O)([C@@H](OC(=O)c4ccccc4)[C@H]21)C3(C)C [Docetaxel]
- % drug loading (wt. drug(s)/wt. polymer) [1]: 14.2 ± 1.5% and 11.5 ± 0.5%
- % drug loading (wt. drug(s)/wt. polymer) ([1]; listed as DCTX): 11.5%
- drug level in water ([2]; analyte docetaxel): 4270 ± 440 µg/mL
- drug level in water ([2]; analyte docetaxel, listed as DCTX): 4270 µg/mL
- drug precipitated at 24 hours [3]: ~73%
- % w/w drug(s) left @ 24 hr ([3]; analyte docetaxel): 26.8 ± 3.3 % w/w
- initial drug level in water ([3]; analyte docetaxel): 4.27 ± 0.44 mg/mL
- drug level @ 24 hr in water ([3]; analyte docetaxel): 1140 ± 30 µg/mL
- time the micelles were physically stable [3]: approximately 6 hours
- first-order rate constant ([4]; release of docetaxel): 0.379 h⁻¹
- intrinsic solubility in water [5]: 5.5 µg/mL
- PEG-b-PLA micelle diameter [6]: 37.3 ± 1.7 nm

Compound: C=CCNC1=C2C[C@@H](C)C[C@H](OC)[C@H](O)[C@@H](C)/C=C(\C)[C@H](OC(N)=O)[C@@H](OC)/C=C\C=C(/C)C(=O)NC(=CC1=O)C2=O [17-AAG, 17-allylamino-17-demethoxygeldanamycin]
- Renal clearance (CLrenal) [8]: increased
- hepatic clearance (CLhepatic) [8]: decreased
- % drug loading (wt. drug(s)/wt. polymer) [1]: 13.0 ± 0.9% and 11.3 ± 0.3%
- drug level in water ([2]; analyte 17-AAG): 3900 ± 280 µg/mL
- 17-AAG solubilized (physchem; PEG-PLA (12:6 kDa) micelles): 1.5 mg/mL
- solubility (physchem; PEG-PLA (12:6 kDa) micelles in water, aqueous with cosolvent or surfactant or cyclodextrin): ~1500 µg/mL (≈ 2560 µM)
- IC50 [9, 14]: 0.118 ± 0.01 µM
- maximum tolerated dose [10]: 100-200 mg/m^2/day
- initial drug level in water ([3]; analyte 17-AAG): 3.90 ± 0.28 mg/mL
- drug level @ 24 hr in water ([3]; analyte 17-AAG): 3840 ± 180 µg/mL
- first-order rate constant ([4]; release of 17-AAG): 0.525 h⁻¹
- PEG-b-PLA micelle diameter [6]: 39.3 ± 2.9 nm
- IC50 [11, 14]: 0.771 ± 0.163 µM
- IC50 [12]: 266 ± 48 nM

Compound: CO[C@H]1/C=C\C=C(/C)C(=O)NC2=CC(=O)C(NCCN(C)C)=C(C[C@@H](C)C[C@H](OC)[C@H](O)[C@@H](C)/C=C(\C)[C@@H]1OC(N)=O)C2=O [17-DMAG, 17-dimethylamino-ethylamino-17-demethoxygeldanamycin]
- maximum tolerated dose [10]: 8 mg/m^2/day

Further lines, with some results ahead:

- % drug loading (wt. drug(s)/wt. polymer) [1]: 11.0 ± 0.5%
- % drug loading (wt. drug(s)/wt. polymer) ([1]; listed as ETO): 9.6%
- drug level in water ([2]; analyte etoposide): 3310 ± 150 µg/mL
- drug precipitated at 24 hours [3]: ~68%
- % w/w drug(s) left @ 24 hr ([3]; analyte etoposide): 32.3 ± 3.4 % w/w
- initial drug level in water ([3]; analyte etoposide): 3.31 ± 0.15 mg/mL
- drug level @ 24 hr in water ([3]; analyte etoposide): 1070 ± 160 µg/mL
- time the micelles were physically stable [3]: approximately 6 hours
- PEG-b-PLA micelle diameter [6]: 32.6 ± 1.0 nm
Compound: COc1cc([C@@H]2c3cc4c(cc3[C@@H](O[C@@H]3O[C@@H]5CO[C@@H](C)O[C@H]5[C@H](O)[C@H]3O)[C@H]3COC(=O)[C@H]23)OCO4)cc(OC)c1O [Etoposide]
- decrease of the IC50 of ETO [7]: 10 fold
- first-order rate constant ([4]; release of etoposide): 0.636 h⁻¹
- intrinsic solubility in water [5]: 58 µg/mL

- loading into micelles [13]: 4%
- % drug loading (wt. drug(s)/wt. polymer) [1]: 6.6 ± 1.3%
- drug level in water ([2]; analyte rapamycin): 1840 ± 260 µg/mL
- % w/w drug(s) left @ 24 hr ([3]; analyte rapamycin): 91.5 ± 0.2 % w/w
- initial drug level in water ([3]; analyte rapamycin): 1.84 ± 0.26 mg/mL
- drug level @ 24 hr in water ([3]; analyte rapamycin): 1680 ± 230 µg/mL
- PEG-b-PLA micelle diameter [6]: 36.9 ± 1.3 nm
Compound: CO[C@H]1C[C@@H]2CC[C@@H](C)[C@@](O)(O2)C(=O)C(=O)N2CCCC[C@H]2C(=O)O[C@H]([C@H](C)C[C@@H]2CC[C@@H](O)[C@H](OC)C2)CC(=O)[C@H](C)/C=C(\C)[C@@H](O)[C@@H](OC)C(=O)[C@H](C)C[C@H](C)/C=C/C=C/C=C/1C [Rapamycin]
- IC50 [9, 15]: > 100 µM
- first-order rate constant ([4]; release of rapamycin): 0.100 h⁻¹ and 0.081 h⁻¹
- IC50 [11, 15]: 0.59 ± 0.11 µM
- IC50 ([12]; read-out: IC50): 255 ± 37 nM
